Results: ChEMBL document CHEMBL1201862, “PubChem BioAssay data set” (2004)
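Following 48 hours of exposure in 96-well plates, responses at five concentrations were used to interpolate endpoints linearly. GI50 = concentration required for 50% inhibition of growth.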 Calls of active or inactive are those of the source. Cut-off read from the data, not from the text of the source: active = GI50 up to about 1.1 µM and inactive = higher.

Assays:
Assay in all cases: NCI anticancer screen, dose series, 48 h
[1] = system: 786-0
[2] = system: BT-549
[3] = system: DU-145
[4] = system: EKVX
[5] = system: HCC 2998
[6] = system: HCT-15
[7] = system: HL-60
[8] = system: HOP-92
[9] = system: K562
[10] = system: MDA-MB-231
[11] = system: Malme-3M
[12] = system: NCI-H460
[13] = system: NCI/ADR-RES
[14] = system: OVCAR-8
[15] = system: RXF 393
[16] = system: SK-MEL-28
[17] = system: SK-MEL-5
[18] = system: SW-620
[19] = system: T47D
[20] = system: UACC-62

O=c1[nH]c2c(c(=O)[nH]1)SSC2
GI50 [1]: 4.89 µM (inactive) | GI50 [2]: 2.25 µM (inactive) | GI50 [3]: 13.8 µM (inactive) | GI50 [4]: 21.3 µM (inactive) | GI50 [5]: 16.2 µM (inactive) | GI50 [6]: 27.7 µM | GI50 [7]: 1.99 µM (inactive) | GI50 [8]: 2.51 µM (inactive) | GI50 [9]: 0.74 µM (active) | GI50 [10]: 2.18 µM (inactive) | GI50 [11]: 3.9 µM (inactive) | GI50 [12]: 11.7 µM (inactive) | GI50 [13]: 2.75 µM (inactive) | GI50 [14]: 4.16 µM (inactive) | GI50 [15]: 14.5 µM (inactive) | GI50 [16]: 5.79 µM (inactive) | GI50 [17]: 13.8 µM (inactive) | GI50 [18]: 7.19 µM (inactive) | GI50 [19]: 11.2 µM (inactive) | GI50 [20]: 3.03 µM (inactive)

Nc1cc2c3c(c1)Oc1cc(N)cc4c1C3c1c(cc(N)cc1O4)O2
GI50 [1]: 25.3 µM (inactive) | GI50 [2]: 15.2 µM (inactive) | GI50 [3]: 3.03 µM (inactive) | GI50 [4]: 11.6 µM (inactive) | GI50 [5]: 34.9 µM (inactive) | GI50 [6]: 18.3 µM | GI50 [7]: 23.9 µM (inactive) | GI50 [8]: 57.5 µM (inactive) | GI50 [9]: 30.8 µM (inactive) | GI50 [10]: 16.2 µM (inactive) | GI50 [11]: 6.32 µM (inactive) | GI50 [12]: 30.3 µM (inactive) | GI50 [13]: 6.32 µM (inactive) | GI50 [14]: 9.48 µM (inactive) | GI50 [15]: 12.3 µM (inactive) | GI50 [16]: 47.3 µM (inactive) | GI50 [17]: 11.9 µM (inactive) | GI50 [18]: 33.7 µM (inactive) | GI50 [19]: 20.7 µM (inactive) | GI50 [20]: 26.4 µM (inactive)

COC(=O)C(Cc1ccccc1)NP(=O)(O)OCC1OC(n2cc(Br)c(=O)[nH]c2=O)CC1O (stereo not given)
GI50 [1]: > 100 µM (inactive) | GI50 [2]: > 100 µM (inactive) | GI50 [3]: > 100 µM (inactive) | GI50 [4]: > 100 µM (inactive) | GI50 [5]: > 100 µM (inactive) | GI50 [6]: > 100 µM | GI50 [7]: > 100 µM (inactive) | GI50 [8]: > 100 µM (inactive) | GI50 [9]: > 100 µM (inactive) | GI50 [10]: > 100 µM (inactive) | GI50 [11]: > 100 µM (inactive) | GI50 [12]: > 100 µM (inactive) | GI50 [13]: > 100 µM (inactive) | GI50 [14]: > 100 µM (inactive) | GI50 [15]: > 100 µM (inactive) | GI50 [16]: > 100 µM (inactive) | GI50 [17]: > 100 µM (inactive) | GI50 [18]: > 100 µM (inactive) | GI50 [19]: > 100 µM (inactive) | GI50 [20]: > 100 µM (inactive)

CC(C)C1CC(CO)(CNc2nc(N)nc(Cl)c2/C=N\O)C1 (stereo not given)
GI50 [1]: 18.2 µM (inactive) | GI50 [2]: 11.7 µM (inactive) | GI50 [3]: 15.6 µM (inactive) | GI50 [4]: 0.264 µM (active) | GI50 [5]: 3.94 µM (inactive) | GI50 [6]: 15.7 µM | GI50 [7]: 4.6 µM (inactive) | GI50 [8]: 12.5 µM (inactive) | GI50 [9]: 0.0843 µM (active) | GI50 [10]: 12.6 µM (inactive) | GI50 [11]: 3.22 µM (inactive) | GI50 [12]: 0.685 µM (active) | GI50 [13]: 3.42 µM (inactive) | GI50 [14]: 15.5 µM (inactive) | GI50 [15]: 18.8 µM (inactive) | GI50 [16]: 12.8 µM (inactive) | GI50 [17]: 0.71 µM (active) | GI50 [18]: 22.5 µM (inactive) | GI50 [19]: 1.25 µM (inactive) | GI50 [20]: 11.6 µM (inactive)

C=CCNC1=C2C[C@@H](C)C[C@H](OC)[C@H](O)[C@@H](C)/C=C(\C)[C@H](OC(N)=O)[C@@H](OC)/C=C\C=C(/C)C(=O)NC(=CC1=O)C2=O [TANESPIMYCIN]
GI50 [1]: 0.0638 µM (active) | GI50 [2]: 5.73 µM (inactive) | GI50 [3]: 0.0569 µM (active) | GI50 [4]: 4.01 µM (inactive) | GI50 [5]: 0.0664 µM (active) | GI50 [6]: 0.204 µM | GI50 [7]: 0.0489 µM (active) | GI50 [8]: 3.69 µM (inactive) | GI50 [9]: 0.0405 µM (active) | GI50 [10]: 1.11 µM (active) | GI50 [11]: 0.0619 µM (active) | GI50 [12]: 0.0136 µM (active) | GI50 [13]: 5.69 µM (inactive) | GI50 [14]: 0.0607 µM (active) | GI50 [15]: 0.0813 µM (active) | GI50 [16]: 0.396 µM (active) | GI50 [17]: 0.0259 µM (active) | GI50 [18]: 0.279 µM (active) | GI50 [19]: 0.847 µM (active) | GI50 [20]: 0.0326 µM (active)

CC(=O)O/C=C\OC1CCCC1(c1ccccc1)c1ccccc1 (stereo not given)
GI50 [1]: 3.21 µM (inactive) | GI50 [2]: 1.95 µM (inactive) | GI50 [3]: 3.95 µM (inactive) | GI50 [4]: 7.5 µM (inactive) | GI50 [5]: 8.91 µM (inactive) | GI50 [6]: 2.13 µM | GI50 [7]: 1.34 µM (inactive) | GI50 [8]: 1.82 µM (inactive) | GI50 [9]: 2.16 µM (inactive) | GI50 [10]: 2.4 µM (inactive) | GI50 [11]: 2.18 µM (inactive) | GI50 [12]: 7.26 µM (inactive) | GI50 [13]: 2.84 µM (inactive) | GI50 [14]: 2.42 µM (inactive) | GI50 [15]: 2.3 µM (inactive) | GI50 [16]: 2.1 µM (inactive) | GI50 [17]: 2.61 µM (inactive) | GI50 [18]: 2.42 µM (inactive) | GI50 [19]: 2.47 µM (inactive) | GI50 [20]: 5.27 µM (inactive)
